Data as given in US20220331290A1, “PHARMACEUTICAL COMPOSITION FOR PREVENTING OR TREATING SARCOPENIA, CONTAINING UNNATURAL AMINO ACID” (MYO-TEC-SCI, priority 2019, published 2022).

Experiments:
myostatin promoter = assay: Myostatin promoter activity, dual luciferase assay in C2C12 cells transfected with pGL4.15-MSTN; format: cell-based, mouse; details: for myostatin promoter activity reduced by: 1 mM, C2C12 cells, medium without L-leucine, after one day; for promoter activity of myostatin: C2C12, medium without L-leucine
Procedure: After seeding 1×10^5 cells of mouse skeletal muscle cells C2C12 (ATCC, US) in a 12-well culture plate, on the next day, pGL4.15 empty vector and pGL4.15-MSTN vector containing myostatin promoter were transfected using Lipofectamine 2000 for 4 hours. After 4 hours, the complete medium (0.8 mM L-leucine) and the medium without L-leucine were treated with D-leucine or DL-leucine at concentrations of 0.001 mM, 0.01 mM, 0.1 mM, and 1 mM, respectively. After one day, a dual luciferase assay kit (Promega Inc.) was used to measure the promoter activity of myostatin.
In the same manner as the experiment to examine the inhibitory effect of a myostatin promoter activity by D-leucine or DL-leucine, D-alanine was treated at concentrations of 0.01 mM, 0.1 mM, 1 mM, and 10 mM in a medium without L-leucine, and a dual luciferase assay kit (Promega Inc.) was used to measure the promoter activity of myostatin.
In the same manner as in the experiment to examine the inhibitory effect of a myostatin promoter activity by D-leucine or DL-leucine, and D-alanine, D-proline was treated at concentrations of 0.001 mM, 0.01 mM, 0.1 mM, and 1 mM in a medium without L-leucine, and a dual luciferase assay kit (Promega Inc.) was used to measure the promoter activity of myostatin.
In the same manner as the myostatin promoter activity experimental method performed in Example 1 above, D-phenylalanine (0.001-0.1 mM), D-serine (0.001-0.1 mM), D-tyrosine (0.0001-0.01 mM), D-asparagine monohydrate (0.001-0.1 mM), D-aspartic acid (0.0001-0.01 mM), D-methionine (0.001-0.1 mM), D-cysteine hydrochloride monohydrate (0.001-0.1 mM), D-glutamic acid (0.0001-0.01 mM), D-arginine (0.001-0.1 mM), and D-tryptophan (0.001-0.1 mM) were treated, respectively. The myostatin mRNA expression level was identified using qRT-PCR, and the myostatin mRNA expression value was corrected using the expression value of beta-actin.

myostatin mRNA = assay: Myostatin mRNA expression by qRT-PCR in C2C12 cells, corrected with beta-actin; format: cell-based, mouse; details: C2C12, medium without L-leucine
Procedure: After seeding mouse skeletal muscle cells C2C12 (ATCC, US) 3×10^5 cells in a 6-well culture plate, on the next day, D-leucine was treated at concentrations of 0.01 mM, 0.1 mM, and 1 mM in a complete medium (0.8 mM L-leucine) and a medium without L-leucine. […]

CC(C)CC(N)C(=O)O (racemic) [DL-leucine]
myostatin promoter activity reduced by (myostatin promoter): 41%

C[C@@H](N)C(=O)O [D-alanine]
mRNA expression level of myostatin (myostatin mRNA; D-alanine at 0.001 mM or more (0.001-1 mM tested), 12 hours (FIG. 7)): decreased | promoter activity of myostatin (myostatin promoter; D-alanine at 0.01 mM or more (0.01-10 mM tested), 12 hours (FIG. 6)): decreased

CC(C)C[C@@H](N)C(=O)O [D-leucine]
expression of myostatin mRNA (myostatin mRNA; D-leucine 0.01, 0.1 and 1 mM, after one day): decreased in a dose-dependent manner | myostatin promoter activity reduced by (myostatin promoter): 54%

O=C(O)[C@H]1CCCN1 [D-proline]
mRNA expression level of myostatin (myostatin mRNA; D-proline at 0.1 mM or more (0.1 and 1 mM tested), 24 hours (FIG. 9)): decreased | promoter activity of myostatin (myostatin promoter; D-proline at 0.001 mM or more (0.001-1 mM tested), 24 hours (FIG. 8)): decreased
